Measured values reported in BindingDB's records for patent US11787766 (Shanghai Ennovabio Pharmaceuticals, 2023).

target: Programmed cell death 1 ligand/protein 1 (Homo sapiens, UniProt Q9NZQ7); experiment: Homogeneous Time-Resolved Fluorescence (HTRF)
From the text: PD1/PD-L1 binding assay kit (Cisbio, Cat #63ADK000CPDEC) was used, which includes two proteins, Tag 1-PD-L1 and Tag 2-PD-1, and two antibodies, Anti-Tag1-Eu3+ and Anti-Tag2-XL 665. Assay principle: Anti-tag1-Eu3+ is the HTRF donor, and Anti-Tag2-XL 665 is the HTRF acceptor. When Tag 1-PD-L1 and Tag 2-PD-1 interact, the added HTRF donor and the acceptor are close to each other. After the donor receives the excitation energy, it transfers part of the energy to the acceptor, thus producing 665 nm emission signal. When the compound is added to block the PD1/PD-L1 interaction, only 620 nm emission light was detected. The inhibitory effect of the compound was determined by analyzing the ratio of 665 nm/620 nm. Tag 1-PD-L1 was diluted with Diluent buffer (cat #62DLBDDF) to a working concentration of 10 nM, Tag 2-PD-1 was diluted with Diluent buffer to a working concentration of 500 nM, and Anti-Tag1-Eu3+ was diluted with detection buffer (cat #62DB1FDG) by 1:100, Anti-Tag2-XL 665 was diluted with detection buffer by 1:20, and the test compound was diluted with Diluent buffer to a final concentration of 2×. In a 384-well plate, 2 μL of compound was added to each well, and then 4 μL of Tag 1-PD-L1, 4 μL of Tag 2-PD-1 were added and incubated at room temperature for 15 minutes.

Sequence of Programmed cell death 1 ligand/protein 1 (Q9NZQ7 whole entry): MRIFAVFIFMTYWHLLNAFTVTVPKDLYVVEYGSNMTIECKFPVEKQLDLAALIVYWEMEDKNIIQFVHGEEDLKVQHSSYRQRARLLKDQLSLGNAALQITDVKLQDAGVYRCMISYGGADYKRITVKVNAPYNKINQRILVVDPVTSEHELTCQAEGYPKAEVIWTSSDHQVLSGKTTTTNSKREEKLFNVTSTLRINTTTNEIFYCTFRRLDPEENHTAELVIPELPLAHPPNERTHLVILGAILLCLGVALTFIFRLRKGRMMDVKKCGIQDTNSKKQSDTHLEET
Sequence of Programmed cell death 1 ligand/protein 1 (Q15116 whole entry, further chain): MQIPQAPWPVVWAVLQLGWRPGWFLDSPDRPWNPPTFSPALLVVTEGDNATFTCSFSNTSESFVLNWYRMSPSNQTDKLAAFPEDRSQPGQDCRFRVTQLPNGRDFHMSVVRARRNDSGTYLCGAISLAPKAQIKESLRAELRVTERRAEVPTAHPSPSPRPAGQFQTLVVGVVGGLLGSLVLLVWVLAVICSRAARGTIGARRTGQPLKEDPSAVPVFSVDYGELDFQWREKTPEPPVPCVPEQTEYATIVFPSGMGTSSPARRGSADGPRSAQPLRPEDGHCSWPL

For COc1nc(OCc2cccc(-c3cccc(CO)c3C)c2C)ccc1CNCCNC(C)=O [US11787766, Compound 2], which IC50 is on record?
Its IC50 is over 1000 nM.

Which IC50 does the source give for COc1nc(OCc2cccc(-c3cccc(CO)c3C)c2C)ccc1CN [US11787766, Compound 3] here?
The IC50 was over 1000 nM.

Which IC50 does the source give for COc1nc(OCc2cccc(-c3cccc(COc4ccc(C#N)c(OC)n4)c3C)c2C)ccc1C#N [US11787766, Compound 5] here?
The IC50 was over 1000 nM.

How did the IC50 turn out when COc1cc(OCc2cccc(-c3cccc(CO)c3C)c2C)cc(OC)c1CN [US11787766, Compound 11] was run?
Its IC50 is over 1000 nM.

With COc1nc(OCc2cccc(-c3cccc(CN)c3C)c2)ccc1CN [US11787766, Compound 16] as the molecule, how does the IC50 read?
The IC50 was over 1000 nM.

Which IC50 does the source give for COc1nc(OCc2cccc(-c3cccc(COc4ccc(CNCCNC(C)=O)c(OC)n4)c3C)c2C)ccc1C#N [US11787766, Compound 17] here?
The IC50 was over 1000 nM.

COc1nc(OCc2cccc(-c3cccc(COc4ccc(CNCCNC(C)=O)c(OC)n4)c3Cl)c2C)ccc1CNCCNC(C)=O [US11787766, Compound 30] was tested. Which IC50 did it give?
Its IC50 is under 10 nM.

How did the IC50 turn out when COc1nc(OCc2cccc(-c3cccc(COc4ccc(CN5C[C@H](O)C[C@H]5CO)c(OC)n4)c3Cl)c2Cl)ccc1CN1C[C@H](O)C[C@H]1CO [US11787766, Compound 69] was run?
The IC50 was under 10 nM.
